Reference: patent US20110251238A1, “PPAR AGONIST COMPOSITIONS AND METHODS OF USE” (BIOPHARMED, priority 2008, published 2011)
≈ marks a conversion by molar mass, not a printed value. Where two headings read alike, the source gives them in different places.

Experiments:
[1] = system: KB3 (epitheloid lung cancer) cell lines; assay: Cell growth inhibition (cytotoxicity), MTS assay, KB3 cell line; format: cell-based; settings: Table 3A, MTS assay, triplicate, read-out: KB3 IC50
Protocol: Cell growth inhibition was determined by the MTS assay; the number of viable cells were proportional to the extent of formazan production in the presence or absence of drugs. […]

[2] = system: A549 (human lung adenocarcinoma epithelial); assay: Growth inhibition, MTT colorimetric assay, A549; format: cell-based; settings: carcinoma, 3 days with drug, means of six values, unit inferred, read-out: IC50 A549
Protocol: (§1) A549 (human lung adenocarcinoma epithelial), BxPC3 (pancreatic cancer), LoVo (colon cancer), MCF-7 (epithelial breast cancer), PC3 (human prostate cancer), Hs683 (human glioma), T98G (glioblastoma), U373 (human glioblastoma-astrocytoma), U138 MG (human glioma), epithelial-like), SKMEL28 (human melanoma), B16-F10 (mouse melanoma) and RhTP (rhabdomyosarcoma) cell lines were cultured in presence of the drugs for 3 days. The cytotoxic activity is expressed as (IC50). Inhibition of cell proliferation measured by the MTT colorimetric assay. The values reported in Table 4 are means of six distinct values.

[3] = system: BxPC3 (pancreatic cancer); assay: Growth inhibition, MTT colorimetric assay, BxPC3; format: cell-based, human; settings: carcinoma, 3 days with drug, means of six values, unit inferred, read-out: IC50 BxPC3
Protocol: Cells are cultured at 37° C. in Falcon culture dishes, incubated at 5% CO2 in a suitable culture medium available from Invitrogen Corp. Anti-proliferative activity is determined by an MTT assay (bromide of (3-[4,5-dimethylthiazolium-yl]diphenyltetrazolium)). According to one standard protocol, absorbance is measured at 570 nm (see Dumont et al. (2007) Neoplasia 9: 766-776.
as §1

[4] = system: LoVo (colon cancer); assay: Growth inhibition, MTT colorimetric assay, LoVo; format: cell-based; settings: carcinoma, 3 days with drug, means of six values, unit inferred, read-out: IC50 LoVo
Protocol: as §1

[5] = system: MCF-7 (epithelial breast cancer); assay: Growth inhibition, MTT colorimetric assay, MCF7; format: cell-based; settings: carcinoma, 3 days with drug, means of six values, unit inferred, read-out: IC50 MCF7
Protocol: as §1

[6] = system: PC3 (human prostate cancer); assay: Growth inhibition, MTT colorimetric assay, PC3; format: cell-based; settings: carcinoma, 3 days with drug, means of six values, unit inferred, read-out: IC50 PC3
Protocol: as §1, with “Compounds that met the criteria for activity on KB3 cells were further tested for drug growth inhibitory activity in 5 carcinoma, 6 glioma and 3 melanoma cell lines, shown in Table 4. A549” for “A549”, “values. The standard errors are <5% as compared to the mean values.” for “values.”

[7] = system: Hs683 (human glioma); assay: Growth inhibition, MTT colorimetric assay, HS683; format: cell-based; settings: glioma, 3 days with drug, means of six values, unit inferred, read-out: IC50 HS683
Protocol: as §1

[8] = system: T98G (glioblastoma); assay: cells; format: cell-based; settings: glioma, 3 days with drug, means of six values, unit inferred, read-out: IC50 T98G
Protocol: as §1

[9] = system: U373 (human glioblastoma-astrocytoma); assay: Growth inhibition, MTT colorimetric assay, U373; format: cell-based; settings: glioma, 3 days with drug, means of six values, unit inferred, read-out: IC50 U373
Protocol: as §1, with “Compounds that met the criteria for activity on KB3 cells were further tested for drug growth inhibitory activity in 5 carcinoma, 6 glioma and 3 melanoma cell lines, shown in Table 4. A549” for “A549”, “values. The standard errors are <5% as compared to the mean values.” for “values.”

[10] = system: U138 MG (human glioma); assay: Growth inhibition, MTT colorimetric assay, U138; format: cell-based; settings: glioma, 3 days with drug, means of six values, unit inferred, read-out: IC50 U138
Protocol: as §1, with “Compounds that met the criteria for activity on KB3 cells were further tested for drug growth inhibitory activity in 5 carcinoma, 6 glioma and 3 melanoma cell lines, shown in Table 4. A549” for “A549”, “values. The standard errors are <5% as compared to the mean values.” for “values.”

[11] = system: GL19; assay: Growth inhibition, MTT colorimetric assay, GL19; format: cell-based; settings: 3 days with drug, means of six values, unit inferred, read-out: IC50 GL19
Protocol: as §1, with “Compounds that met the criteria for activity on KB3 cells were further tested for drug growth inhibitory activity in 5 carcinoma, 6 glioma and 3 melanoma cell lines, shown in Table 4. A549” for “A549”, “values. The standard errors are <5% as compared to the mean values.” for “values.”

[12] = system: RhTP (rhabdomyosarcoma); assay: Growth inhibition, MTT colorimetric assay, RhTp; format: cell-based; settings: 3 days with drug, means of six values, unit inferred, read-out: IC50 RhTp
Protocol: as §1, with “Compounds that met the criteria for activity on KB3 cells were further tested for drug growth inhibitory activity in 5 carcinoma, 6 glioma and 3 melanoma cell lines, shown in Table 4. A549” for “A549”, “values. The standard errors are <5% as compared to the mean values.” for “values.”

[13] = system: KaKa; assay: Growth inhibition, MTT colorimetric assay, KaKa; format: cell-based; settings: 3 days with drug, means of six values, unit inferred, read-out: IC50 KaKa
Protocol: as §1, with “Compounds that met the criteria for activity on KB3 cells were further tested for drug growth inhibitory activity in 5 carcinoma, 6 glioma and 3 melanoma cell lines, shown in Table 4. A549” for “A549”, “values. The standard errors are <5% as compared to the mean values.” for “values.”

[14] = system: Host; assay: Growth inhibition, MTT colorimetric assay, Host; format: cell-based; settings: 3 days with drug, means of six values, unit inferred, read-out: IC50 Host
Protocol: as §1, with “Compounds that met the criteria for activity on KB3 cells were further tested for drug growth inhibitory activity in 5 carcinoma, 6 glioma and 3 melanoma cell lines, shown in Table 4. A549” for “A549”, “values. The standard errors are <5% as compared to the mean values.” for “values.”

[15] = system: SKMEL28 (human melanoma); assay: Growth inhibition, MTT colorimetric assay, SKMEL-28; format: cell-based; settings: melanoma, 3 days with drug, means of six values, unit inferred, read-out: IC50 SKMEL-28
Protocol: as §1, with “Compounds that met the criteria for activity on KB3 cells were further tested for drug growth inhibitory activity in 5 carcinoma, 6 glioma and 3 melanoma cell lines, shown in Table 4. A549” for “A549”, “values. The standard errors are <5% as compared to the mean values.” for “values.”

[16] = system: B16-F10 (mouse melanoma); assay: Growth inhibition, MTT colorimetric assay, B16F10; format: cell-based; settings: melanoma, 3 days with drug, means of six values, unit inferred, read-out: IC50 B16F10
Protocol: as §1, with “Compounds that met the criteria for activity on KB3 cells were further tested for drug growth inhibitory activity in 5 carcinoma, 6 glioma and 3 melanoma cell lines, shown in Table 4. A549” for “A549”, “values. The standard errors are <5% as compared to the mean values.” for “values.”

[17] = system: bloodstream forms of T. brucei and T. congolense; assay: Trypanocidal activity in vitro, Alamar Blue assay; format: cell-based, Trypanosoma brucei and T. congolense; settings: 48 h total incubation; for GI50: 50% growth inhibition, read-out: GI50; for MIC: lowest concentration at which all cells were killed, read-out: MIC
From the text: Trypanosoma brucei and T. congolense are the causative agents of sleeping sickness in humans and nagana in cattle, respectively. The protozoan parasites live extracellularlyin blood and tissue fluids of mammals and are transmitted by the bite of infected tsetse flies (Glossina spp.). Here the trypanocidal activity against bloodstream forms of T. brucei and T. congolense of bis-8-hydroxy quinoline N-substituted benzylamines derivatives was investigated in vitro, according to methods described in. Steverding et al. (2006) Kinetoplastid Biology and Disease, 5(3): 1-5; Hongmance et al., (2007) Antimicrob. Agents Chemother. 51:1105-1106; and Zhao et al., (2005) Bio-org. Med. Chem.; 13: 3921-3926. Cells were seeded into 96-well tissue culture plates in 200 μl medium containing various concentrations of analogues dissolved in H2O. The controls contained the respective solvent alone. […] After 24 h (trypanosomes) or 43 h (HL-60) incubation, 20 μl of the colorimetric viability indicator Alamar Blue® was added to each well. The cells were incubated for a further 24 h (trypanosomes) or 5 h (HL-60) so that the total incubation time was 48 h. Then, the plates were read on a Dynatech MR5000ELISA reader (Denkendorf, Germany),using a test wavelength of 550 nm and a reference wave length of 630 nm. Each test was set up in duplicate and repeated three times. For comparison, the general cytotoxicity of the compounds was assayed with human myeloid leukaemia HL-60 cells. The anti-trypanosomal activities and the general cytotoxicities of the new analogues were evaluated using the Alamar Blue® assay.

Compound | IC50 ([1]; KB3) | IC50 ([2]; Homo sapiens, A549, 72 h) | IC50 ([3]; Homo sapiens, BXPC-3, 72 h) | GI50 [17] | MIC [17] | IC50 [2] | IC50 [3] | IC50 [4] | IC50 [5] | IC50 [6] | IC50 [7] | IC50 [8] | IC50 [9] | IC50 [10] | IC50 [11] | IC50 [12] | IC50 [13] | IC50 [14] | IC50 [15] | IC50 [16] | also measured
Oc1ccc(CN(Cc2cccc(C(F)(F)F)c2)Cc2ccc(O)c3ncccc23)c2cccnc12 [BPM19,189, 5,5′-(3-(trifluoromethyl)benzylazanediyl)bis(methylene)diquinolin-8-ol] | 2200 nM | 38 nM | 167 nM | 310 ± 10 nM | 1 µM (≈ 0.489 µg/mL) |  |  |  |  |  |  |  |  |  |  |  |  |  |  |  | IC50 ([4]; Homo sapiens, LoVo, 72 h): 94 nM; IC50 ([5]; Homo sapiens, MCF7, 72 h): 30 nM; IC50 ([6]; Homo sapiens, 72 h): 37 nM; IC50 ([7]; Homo sapiens, Hs 683, 72 h): 36 nM; IC50 ([8]; Homo sapiens, T98G, 72 h): 57 nM; IC50 ([9]; Homo sapiens, U373 MG, 72 h): 65 nM; IC50 ([10]; Homo sapiens, U138-MG, 72 h): 47 nM; IC50 ([11]; GL19, 72 h): 674 nM; IC50 ([12]; 72 h): 69 nM; IC50 ([13]; 72 h): 6.47 µM; IC50 ([14]; 72 h): 679 nM; IC50 ([15]; Homo sapiens, SK-MEL-28, 72 h): > 10 µM; IC50 ([16]; Mus musculus, B16-F10, 72 h): 89 nM
Oc1ccc(CN(Cc2ccccc2C(F)(F)F)Cc2ccc(O)c3ncccc23)c2cccnc12 [BPM19,178, 5,5-(2-(Trifluoromethyl)benzylazanediyl)bis(methylene)diquinolin-8-ol] |  |  |  | 330 ± 10 nM | 1 µM (≈ 0.489 µg/mL) | 46 nM | 274 nM | 93 nM | 88 nM | 179 nM | 64 nM | 210 nM | 78 nM | 80 nM | 472 nM | 87 nM | 0.887 µM | 912 nM | 6.38 µM | 98 nM | IC50 [1]: 100 nM
Oc1ccc(CN(Cc2ccc(O)c3ncccc23)CC2CCCCC2)c2cccnc12 [BPM19,219, 5,5′-cyclohexylmethylazanediyl-bis-[(methylene)di(quinolin-8-ol)]] |  |  |  | 2950 ± 180 nM | 10 µM (≈ 4.28 µg/mL) | 369 nM | 3810 nM | 357 nM | 365 nM | 421 nM | 584 nM | 486 nM | 2570 nM | 446 nM | 8970 nM | 865 nM | 5.94 µM | 1540 nM | > 10 µM | 873 nM | 
5,5′-(3,5-bis(trifluorométhyl)benzylazanediyl)bis(méthylène)diquinoléin-8-ol [BPM18,201] |  |  |  | 320 ± 10 nM | 1 µM | 9 nM | 79 nM | 10 nM | 38 nM | 71 nM | 181 nM | 72 nM | 96 nM | 46 nM | 2140 nM | 47 nM | 0.098 µM | 146 nM | > 10 µM | 76 nM | IC50 [1]: 1000 nM
Oc1ccc(CN(Cc2cccc(I)c2)Cc2ccc(O)c3ncccc23)c2cccnc12 [BPM19,200, 5,5′-(3-iodobenzylazanediyl)bis(methylene)diquinolin-8-ol] | 1000 nM | 350 nM | 3810 nM |  |  |  |  |  |  |  |  |  |  |  |  |  |  |  |  |  | IC50 ([4]; Homo sapiens, LoVo, 72 h): 393 nM; IC50 ([5]; Homo sapiens, MCF7, 72 h): 374 nM; IC50 ([6]; Homo sapiens, 72 h): 394 nM; IC50 ([7]; Homo sapiens, Hs 683, 72 h): 479 nM; IC50 ([8]; Homo sapiens, T98G, 72 h): 446 nM; IC50 ([9]; Homo sapiens, U373 MG, 72 h): 5600 nM; IC50 ([10]; Homo sapiens, U138-MG, 72 h): 430 nM; IC50 ([11]; GL19, 72 h): > 10000 nM; IC50 ([12]; 72 h): 788 nM; IC50 ([13]; 72 h): 7.68 µM; IC50 ([14]; 72 h): 2980 nM; IC50 ([15]; Homo sapiens, SK-MEL-28, 72 h): 9.85 µM; IC50 ([16]; Mus musculus, B16-F10, 72 h): 888 nM
